In PMC6781285, “Brain Delivery of a Potent Opioid Receptor Agonist, Biphalin during Ischemic Stroke: Role of Organic Anion Transporting Polypeptide (OATP)” (Pharmaceutics, 2019):

What was measured:
iPSC-BMECs = assay: Biphalin uptake studies in iPSC-BMECs; format: in vitro ADME, human
Method: (§1) We measured the level of biphalin in cell lysate (uptake studies) and transport buffer (transport studies) while using our developed, highly sensitive LC-MS/MS method. Briefly, biphalin was extracted from the samples by the addition of acetonitrile (1:2) containing 10 ng/mL internal standard, [D-Ala^2] Leucine Enkephalin (Sigma-Aldrich, St. Louis, MO, USA). After 1-min. vortexing, the mixture is centrifuged at 10,000 rpm for 10 min. After that the supernatant is mixed with an equivalent volume of LCMS water and then loaded into the insert vials ready for the analysis. The UHPLC-MS/MS system equipped with AB SCIEX QTRAP® 5500 mass spectrometer (Foster City, CA, USA) attached to a Nexera ultra high performance liquid chromatography (UHPLC) system from Shimadzu Corporation (Columbia, MD, USA) was used. Data acquisition and quantification were performed by Analyst software 1.7.0.
(§2) Chromatographic separation was then performed with a Kinetex C18 column (50 × 2.1mm, 1.8 μm, Phenomenex, Torrance, CA, USA) while using mobile phases, 0.1% formic acid in water and 0.1% formic acid in acetonitrile. The gradients of acetonitrile (10% at time zero, 31% at 2.5 min., 90% at 2.6 min. up to 3.6, followed by 10% at 3.7 min. up to 4.5 min.) were used to elute biphalin at a flow rate of 0.4 mL/min. Column temperature was maintained at 45 °C. The retention time of biphalin was ∼1.8 min. while the retention time for the internal standard (IS) was ∼2.2 min. Multiple reaction monitoring was conducted in […], and the transitions for biphalin and internal standard were 455.2 → 136.2 m/z and 570.3 → 120.3 m/z, respectively. The collision energy for biphalin and IS was 40 and 45 volts, respectively.
Differentiated BMECs (iPSC-BMECs) are seeded in 12-well plates, incubated with either biphalin (10 µg/mL) (control) or pre-incubated with OATP1 substrate, estrone-3-sulfate (E3S) (10 µM) for 10 min., followed by co-incubation of E3S and 10 µg/mL biphalin in the 37 °C incubator for 20 min. The incubation time, 20 min. was selected to get detectable amount of biphalin in the cell extract. Next, the cells are washed two times with ice-cold phosphate buffered saline (PBS, pH 7.4). The cells were solubilized with 100 µL radioimmunoprecipitation assay (RIPA) Buffer (Thermo Fisher, Waltham, MA, USA) with protease and phosphatase inhibitor cocktail (Thermo Fisher, Waltham, MA, USA), and the amount of biphalin uptake was determined by using the above LCMS method. Protein content was calculated with a detergent-compatible bicinchoninic acid (BCA) assay (Pierce Chemical, Rockford, IL, USA). Biphalin uptake was normalized while using protein content and then presented as biphalin (ng) per µg of protein.
In vitro stroke conditions were simulated by exposing the cells to oxygen-glucose deprivation (OGD) conditions. Briefly, iPSC-BMECs were rinsed twice with Dulbecco’s Modified Eagle medium Solution (DMEM). The cells were incubated with DMEM media (without glucose) plus 1% of PDS [33]. Hypoxia (1% oxygen) was induced by placing the cells in a hypoxic polymer glove box (Coy Laboratories, Grayslake, MI, USA), which was infused with 95% N2 and 5% CO2 at 37 °C. Cells were exposed to OGD condition for 1 h, 2 h, and 6 h, followed by reperfusion with OGD media with glucose and sodium pyruvate. For reperfusion studies, the cells were incubated in the CO2 incubator for pre-determined timepoints, 30 min., 1 h, 2 h, and 6 h.

OATP1 = assay: Biphalin transcellular transport across iPSC-BMECs monolayer (transwell in vitro BBB model); format: in vitro ADME, human; conditions: human; normoxic; E3S pre-incubated 30 min, both luminal and abluminal sides, then biphalin 10 µg/mL plus E3S; A-B; corrected for FITC-dextran 4 kD; LC-MS/MS; mean ± SD, n = 4; read-out: net permeability coefficient (PC) of biphalin, apical to basolateral, with E3S (converted)
Method: as §1, §2
(§3) Transport studies were performed to determine the role of OATP1 on the blood-to-brain transport of biphalin. Confluent iPSC-BMECs, (one million cells/insert) were seeded to the apical side of a 12-well transwell insert (area 1.12 cm^2, polyester), which is pre-coated with 400 µg/mL collagen and 100 µg/mL fibronectin [35]. 10 µg/mL biphalin and an equivalent concentration of FITC-dextran (4kD) were added to the apical compartment. For studies using an inhibitor and OATP1 substrate, E3S was pre-incubated for 30 min., followed by incubation with biphalin and E3S [11]. E3S was added to both the luminal and abluminal sides to inhibit the transporters on both sides. The results were expressed as a net permeability coefficient (PC) after subtracting the PC of FITC-dextran from the PC of biphalin.
(§4) In vitro stroke conditions were simulated by exposing the cells to oxygen-glucose deprivation (OGD) conditions. […] For reperfusion studies, the cells were incubated in the CO2 incubator for pre-determined timepoints, 30 min., 1 h, 2 h, and 6 h.

iPSC-BMECs monolayer = assay: as above; format: in vitro ADME, human
Method: as §1, §2, §3, §4

[1] = cited from earlier work
Excerpt: Our lab has communicated several studies that reported the neuroprotective potential of biphalin, an ultra-potent, non-selective, opioid agonist, in models of both permanent and transient ischemic stroke.

C[C@@H](NC(=O)[C@@H](N)Cc1ccc(O)cc1)C(=O)NCC(=O)N[C@@H](Cc1ccccc1)C(=O)NNC(=O)[C@H](Cc1ccccc1)NC(=O)CNC(=O)[C@@H](C)NC(=O)[C@@H](N)Cc1ccc(O)cc1 [biphalin]
biphalin uptake (iPSC-BMECs; 2 h OGD + 6 h reperfusion, LC-MS/MS, mean ± SD, n = 4): 2.5 ± 0.2 ng/µg | biphalin uptake (iPSC-BMECs; 6 h OGD + 30 min reperfusion, LC-MS/MS, mean ± SD, n = 4): 2 ± 0.25 ng/µg | biphalin uptake (iPSC-BMECs; 6 h OGD + 6 h reperfusion): decreased to the basal normoxic level | biphalin uptake (iPSC-BMECs; after 1 h OGD, biphalin 10 µg/mL, 20 min, LC-MS/MS, mean ± SD, n = 4): 1.31 ± 0.2 ng/µg | increase of biphalin uptake compared to normoxic conditions (iPSC-BMECs; after 2 h OGD exposure (1% oxygen, no glucose), n = 4): 2.8 fold | biphalin uptake (iPSC-BMECs; after 2 h OGD, biphalin 10 µg/mL, 20 min, LC-MS/MS, mean ± SD, n = 4): 1.89 ± 0.015 ng/µg | increase of biphalin uptake compared to normoxic conditions (iPSC-BMECs; after 6 h OGD exposure (1% oxygen, no glucose), n = 4): 2.4 fold | biphalin uptake (iPSC-BMECs; after 6 h OGD, biphalin 10 µg/mL, 20 min, LC-MS/MS, mean ± SD, n = 4): 1.64 ± 0.15 ng/µg | average reduction of biphalin uptake by E3S pre-incubation (iPSC-BMECs; average over selected OGD and OGD-reperfusion timepoints (2 h OGD, 6 h OGD, 2 h OGD + 6 h R, 6 h OGD + 30 min R), n = 3): 26.59 ± 8.01% | reduction of biphalin uptake by E3S (iPSC-BMECs; normal (normoxic) conditions, E3S 10 µM): approximately 23% | biphalin uptake (iPSC-BMECs; normoxic, without E3S, biphalin 10 µg/mL, 20 min, 37 °C, cell lysate (RIPA), LC-MS/MS, normalized to protein (BCA), mean ± SD, n = 4): 0.49 ± 0.05 ng of biphalin per 1 ug of protein | biphalin uptake with E3S (iPSC-BMECs; normoxic, E3S (OATP1 substrate) 10 µM pre-incubated 10 min, then co-incubated with biphalin 10 µg/mL 20 min, 37 °C, LC-MS/MS, mean ± SD, n = 4): 0.37 ± 0.05 ng/ug protein | Papp A→B at 10 µg/mL (OATP1): 5.67 ×10⁻⁶ cm/s | average reduction of biphalin transport in the presence of E3S (iPSC-BMECs monolayer; A-B, average over OGD and OGD-reperfusion timepoints, E3S pre-treated 30 min, n = 3): 37.96 ± 12.51% | transport of biphalin from basolateral to apical side (B to A) (iPSC-BMECs monolayer; B-A, to determine the role of P-gp or other efflux mechanisms, data not shown): negligible | reduction of biphalin transport by E3S (iPSC-BMECs monolayer; normal (normoxic) conditions, A-B, E3S pre-incubated 30 min): ~40% | injected dose accumulated in the brain [1]: 0.05%
